According to patent US11866450B2, “Modulators of Cystic Fibrosis Transmembrane Conductance regulator, pharmaceutical compositions, methods of treatment, and process for making the modulators” (priority 2018, dated 2024):
Like-named read-outs stand apart in the source and are kept apart here.

Tests used:
[1] = molecular target: CFTR-mediated chloride transport (Homo sapiens, UniProt P13569); format: cell-based; details: enteroid cells incubated with test compound 18-24 hours, acute 10 μM forskolin and 300 nM Compound III; for Max. Activity: % of chloride transport with 3 μM Compound A, 3 μM Compound II and 300 nM acute Compound III triple combination control
Method in brief: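 Membrane-potential fluorescence AUC over 15 min quantified CFTR chloride transport after acute forskolin (10 μM), IBMX (100 μM) and Compound III (300 nM) in chloride-free buffer. Human enteroid cells were pretreated with compound for 18–24 h; % Activity is relative to 3 μM Compound A + 3 μM Compound II + 300 nM Compound III.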

[2] = snar bond
[3] = from 2-chloro-6-[3-(4,4-dimethylpentoxy)-2-oxo-pyrrolidin-1-yl]-N-[[6-[3-[(3S)-5,5-dimethylpyrrolidin-3-yl]propylamino]-2-pyridyl]sulfonyl]pyridine-3-carboxamide (dihydrochloride salt), 15-membered ring, K2CO3, NMP, 24.7 mM, 155.0 °C

Sequence of CFTR-mediated chloride transport (P13569 whole entry, looked up): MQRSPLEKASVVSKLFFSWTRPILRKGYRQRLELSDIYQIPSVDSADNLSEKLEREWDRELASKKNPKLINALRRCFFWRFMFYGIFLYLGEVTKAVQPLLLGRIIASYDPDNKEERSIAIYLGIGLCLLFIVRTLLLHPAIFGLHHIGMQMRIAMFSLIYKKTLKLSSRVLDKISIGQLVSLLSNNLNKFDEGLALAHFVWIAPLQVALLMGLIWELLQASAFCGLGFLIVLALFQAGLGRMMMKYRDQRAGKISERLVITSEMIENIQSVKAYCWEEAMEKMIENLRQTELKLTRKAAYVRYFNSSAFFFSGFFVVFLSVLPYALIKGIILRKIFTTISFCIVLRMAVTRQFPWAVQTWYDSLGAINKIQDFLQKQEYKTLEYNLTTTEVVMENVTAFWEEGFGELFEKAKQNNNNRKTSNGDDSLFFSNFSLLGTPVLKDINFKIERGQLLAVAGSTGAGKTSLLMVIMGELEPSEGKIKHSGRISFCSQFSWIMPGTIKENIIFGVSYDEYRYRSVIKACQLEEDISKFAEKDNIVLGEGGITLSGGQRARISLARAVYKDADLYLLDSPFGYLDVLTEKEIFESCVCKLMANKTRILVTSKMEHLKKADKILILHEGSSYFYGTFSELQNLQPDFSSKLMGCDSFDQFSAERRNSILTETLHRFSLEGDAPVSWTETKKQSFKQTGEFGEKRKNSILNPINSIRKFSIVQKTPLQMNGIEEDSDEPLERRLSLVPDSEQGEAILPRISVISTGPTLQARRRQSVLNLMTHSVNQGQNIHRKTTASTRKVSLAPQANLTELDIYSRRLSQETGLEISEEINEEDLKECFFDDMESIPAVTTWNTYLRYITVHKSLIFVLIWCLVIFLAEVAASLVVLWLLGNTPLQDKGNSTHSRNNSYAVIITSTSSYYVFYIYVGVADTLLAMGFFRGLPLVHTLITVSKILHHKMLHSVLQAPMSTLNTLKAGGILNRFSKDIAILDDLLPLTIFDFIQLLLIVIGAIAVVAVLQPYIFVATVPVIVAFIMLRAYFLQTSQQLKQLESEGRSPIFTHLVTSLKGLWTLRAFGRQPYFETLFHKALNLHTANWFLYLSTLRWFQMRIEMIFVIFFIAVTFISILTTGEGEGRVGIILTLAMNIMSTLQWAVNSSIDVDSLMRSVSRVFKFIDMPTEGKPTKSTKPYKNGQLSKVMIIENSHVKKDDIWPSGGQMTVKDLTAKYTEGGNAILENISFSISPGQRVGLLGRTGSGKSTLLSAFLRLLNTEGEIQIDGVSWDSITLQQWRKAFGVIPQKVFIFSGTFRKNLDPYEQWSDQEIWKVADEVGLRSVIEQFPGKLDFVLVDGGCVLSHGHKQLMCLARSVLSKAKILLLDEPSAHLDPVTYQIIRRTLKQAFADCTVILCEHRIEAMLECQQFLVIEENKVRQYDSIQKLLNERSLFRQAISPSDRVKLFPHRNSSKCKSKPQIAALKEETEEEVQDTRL

For CC1(C)CCC2CCCNc3cccc(n3)S(=O)(=O)NC(=O)c3ccc(-n4ccc(OCCC5(C(F)(F)F)CC5)n4)nc3N21 (stereo not drawn) [Compound 16, 12,12-dimethyl-8-(3-{2-[1-(trifluoromethyl)cyclopropyl]ethoxy}-1H-pyrazol-1-yl)-2λ^6-thia-3,9,11,19,24-pentaazatetracyclo[18.3.1.05,10.011,15]tetracosa-1(23),5,7,9,20(24),21-hexaene-2,2,4-trione], the EC50 [1] was under 1000 nM, the “Max. Activity” value [1] was “++ (++ is 30-60%)” and the ring closure, isolated yield ([2]; from CC1(C)CCC(CCCNc2cccc(S(=O)(=O)NC(=O)c3ccc(-n4ccc(OCCC5(C(F)(F)F)CC5)n4)nc3Cl)n2)N1, 14-membered ring, K2CO3/CsF, DMSO, 84.1 mM, 150.0 °C) was 58%.

With CC1(C)CCC2CCNc3cccc(n3)S(=O)(=O)NC(=O)c3ccc(-n4ccc(OCCC5(C(F)(F)F)CC5)n4)nc3N21 (racemic) [Compound 108, 8,8-Dimethyl-12-(3-{2-[1-(trifluoromethyl)cyclopropyl]ethoxy}-1H-pyrazol-1-yl)-18λ^6-thia-2,9,11,17,23-pentaazatetracyclo[17.3.1.05,9.010,15]tricosa-1(23),10(15),11,13,19,21-hexaene-16,18,18-trione] the EC50 [1] was under 1000 nM, the “Max. Activity” value [1] was “++ (++ is 30-60%)” and the ring closure, isolated yield ([2]; from CC(C)(C)OC(=O)N1C(CCNc2cccc(S(=O)(=O)NC(=O)c3ccc(-n4ccc(OCCC5(C(F)(F)F)CC5)n4)nc3Cl)n2)CCC1(C)C, 13-membered ring, TFA (Boc off), CsF/K2CO3/3A MS, DMSO, 84.6 mM, 130.0 °C, 2 steps) was 55%.

For CC1(C)CC2CCCCn3ccc(n3)S(=O)(=O)NC(=O)c3ccc(-n4ccc(OCCC5(C(F)(F)F)CC5)n4)nc3N1C2 (stereo not drawn) [Compound 39, 21,21-dimethyl-4-(3-{2-[1-(trifluoromethyl)cyclopropyl]ethoxy}-1H-pyrazol-1-yl)-10λ^6-thia-1,3,9,14,23-pentaazatetracyclo[17.2.1.111,14.02,7]tricosa-2,4,6,11(23),12-pentaene-8,10,10-trione], the EC50 [1] was 1000 to 3000 nM, the “Max. Activity” value [1] was “+++ (+++ is >60%)” and the ring closure, isolated yield ([2]; from CC(C)(C)OC(=O)N1CC(CCCCn2ccc(S(=O)(=O)NC(=O)c3ccc(-n4ccc(OCCC5(C(F)(F)F)CC5)n4)nc3Cl)n2)CC1(C)C, 15-membered ring, HCl (Boc off), K2CO3/CsF/3A MS, DMSO, 63.7 mM, 150.0 °C, 2 steps) was 37%.

In the case of CC1(C)C[C@@H]2CCCNc3cccc(n3)S(=O)(=O)NC(=O)c3ccc(-n4ccc(OCC(O[Si](C)(C)C(C)(C)C)C5C6(CC6)C56CC6)n4)nc3N1C2 (stereo partly drawn), the ring closure, isolated yield ([2]; from CC1(C)C[C@H](CCCNc2cccc(S(=O)(=O)NC(=O)c3ccc(-n4ccc(OCC(O[Si](C)(C)C(C)(C)C)C5C6(CC6)C56CC6)n4)nc3Cl)n2)CN1, 15-membered ring, K2CO3/MS, DMSO, 9.9 mM, 140.0 °C, 12.0 h) is reported as 55%.

[2H]C([2H])(COc1ccn(-c2ccc3c(n2)N2C[C@@H](CCCNc4nc(ccc4OCc4ccccc4)S(=O)(=O)NC3=O)CC2(C)C)n1)C1C2(CC2)C12CC2 gave a ring closure, isolated yield ([2]; from [2H]C([2H])(COc1ccn(-c2ccc(C(=O)NS(=O)(=O)c3ccc(OCc4ccccc4)c(NCCC[C@@H]4CN(C(=O)OC(C)(C)C)C(C)(C)C4)n3)c(Cl)n2)n1)C1C2(CC2)C12CC2, 15-membered ring, K2CO3/CsF/4A MS, DMSO, 51.0 mM, 150.0 °C, 2 steps) of 68%.

For CC1(C)CC2CCCn3ccc(n3)S(=O)(=O)NC(=O)c3ccc(-n4ccc(OCCC5C(C)(C)C5(C)C)n4)nc3N1C2 (stereo not drawn), the ring closure, isolated yield ([2]; from CC(C)(C)OC(=O)N1CC(CCCn2ccc(S(=O)(=O)NC(=O)c3ccc(-n4ccc(OCCC5C(C)(C)C5(C)C)n4)nc3Cl)n2)CC1(C)C, 14-membered ring, K2CO3/3A MS, NMP, 49.2 mM, 160.0 °C, 2 steps) was 20%.

“12,12,19-trimethyl-8-(3-{2-[1-(trifluoromethyl)cyclopropyl]ethoxy}-1H-pyrazol-1-yl)-2λ^6-thia-3,9,11,19,21-pentaazatetracyclo[18.2.2.111,14.05,10]pentacosa-1(23),5,7,9,20(24),21-hexaene-2,2,4-trione (dihydrochloride salt)” gave a ring closure, isolated yield ([2]; 17-membered ring, K2CO3/CsF, DMSO, 42.1 mM, 150.0 °C) of 39%.

CC1(C)C[C@@H]2CCCNc3cc(OCc4ccccc4)cc(n3)S(=O)(=O)NC(=O)c3ccc(-n4ccc(OCCCC5(C(F)(F)F)CC5)n4)nc3N1C2 gave a ring closure, isolated yield ([2]; from CC1(C)C[C@H](CCCNc2cc(OCc3ccccc3)cc(S(=O)(=O)NC(=O)c3ccc(-n4ccc(OCCCC5(C(F)(F)F)CC5)n4)nc3Cl)n2)CN1, 15-membered ring, K2CO3/CsF, DMSO, 14.1 mM, 160.0 °C, 15.0 h) of 56%.

Compound CC1CCC2CN(c3nc(Cl)ccc3C(=O)NS(=O)(=O)c3cccc(n3)N1)C(C)(C)C2 (stereo not drawn) has a ring closure, isolated yield ([2]; from CC(CCC1CN(C(=O)OC(C)(C)C)C(C)(C)C1)Nc1cccc(S(=O)(=O)NC(=O)c2ccc(Cl)nc2Cl)n1, 15-membered ring, K2CO3/CsF/3A MS, DMSO, 229.0 mM, 140.0 °C, 2 steps) of 31%.

CC1(C)C[C@@H]2CCCNc3cccc(n3)S(=O)(=O)NC(=O)c3ccc(Cl)nc3N1C2 showed a ring closure, isolated yield ([2]; from 2,6-dichloro-N-[[6-[3-[(3S)-5,5-dimethylpyrrolidin-3-yl]propylamino]-2-pyridyl]sulfonyl]pyridine-3-carboxamide (dihydrochloride salt), 15-membered ring, K2CO3/CsF/3A MS, NMP, 113.8 mM, 150.0 °C) of 54%.

With CC1(C)C[C@@H]2CCCNc3cc(OCc4ccccc4)cc(n3)S(=O)(=O)NC(=O)c3ccc(-n4ccc(OCCC5C6(CC6)C56CC6)n4)nc3N1C2 the ring closure, isolated yield ([2]; from CC1(C)C[C@H](CCCNc2cc(OCc3ccccc3)cc(S(=O)(=O)NC(=O)c3ccc(-n4ccc(OCCC5C6(CC6)C56CC6)n4)nc3Cl)n2)CN1, 15-membered ring, K2CO3/CsF, DMSO, 15.3 mM, 160.0 °C, 15.0 h) was 61%.

With CC1(C)CC2CCCCNc3ccc(cn3)S(=O)(=O)NC(=O)c3ccc(-n4ccc(OCC5C6(CC6)C56CC6)n4)nc3N1C2 (stereo not drawn) the ring closure, isolated yield ([2]; from 2-chloro-N-[[6-[4-(5,5-dimethylpyrrolidin-3-yl)butylamino]-3-pyridyl]sulfonyl]-6-[3-(dispiro[2.0.2.1]heptan-7-ylmethoxy)pyrazol-1-yl]pyridine-3-carboxamide (dihydrochloride salt), 17-membered ring, K2CO3/CsF, NMP, 115.5 mM) was 22%.

Work on CC1(C)CC2CC(F)CNc3cccc(n3)S(=O)(=O)NC(=O)c3ccc(-n4ccc(OCCC5C6(CC6)C56CC6)n4)nc3N1C2 (stereo not drawn) yielded a ring closure, isolated yield ([2]; from 2-chloro-N-[[6-[[3-(5,5-dimethylpyrrolidin-3-yl)-2-fluoro-propyl]amino]-2-pyridyl]sulfonyl]-6-[3-(2-dispiro[2.0.2.1]heptan-7-ylethoxy)pyrazol-1-yl]pyridine-3-carboxamide (dihydrochloride salt), 15-membered ring, K2CO3, NMP, 32.3 mM, 150.0 °C) of 76%.

For CC1(C)CC2CCCCCNc3cccc(n3)S(=O)(=O)NC(=O)c3ccc(-n4ccc(OCCC5(C(F)(F)F)CC5)n4)nc3N1C2 (single isomer, unassigned; enantiomer 2), the ring closure, isolated yield ([2]; from CC1(C)CC(CCCCCNc2cccc(S(=O)(=O)NC(=O)c3ccc(-n4ccc(OCCC5(C(F)(F)F)CC5)n4)nc3Cl)n2)CN1, 17-membered ring, K2CO3/CsF/3A MS, DMSO, 35.8 mM, 165.0 °C, 16.0 h) was 50%.

CC1(C)C[C@@H]2CCCNc3ccc(OCc4ccccc4)c(n3)S(=O)(=O)NC(=O)c3ccc(-n4ccc(OCCC5C6(CC6)C56CC6)n4)nc3N1C2 showed a ring closure, isolated yield ([2]; from CC1(C)C[C@H](CCCNc2ccc(OCc3ccccc3)c(S(=O)(=O)NC(=O)c3ccc(-n4ccc(OCCC5C6(CC6)C56CC6)n4)nc3Cl)n2)CN1, 15-membered ring, K2CO3, NMP, 57.2 mM, 150.0 °C, 20.0 h) of 37%.

Compound CC(C)(C)CCCOC1CCN(c2ccc3c(n2)N2C[C@@H](CCCNc4cccc(n4)S(=O)(=O)NC3=O)CC2(C)C)C1=O (single isomer, unassigned; diastereomer 1) has a ring closure, isolated yield [2, 3] of 20%.

In the case of “racemic 8-[3-(2-{dispiro[2.0.2.1]heptan-7-yl}ethoxy)-1H-pyrazol-1-yl]-16,16-difluoro-12,12-dimethyl-2λ^6-thia-3,9,11,18,23-pentaazatetracyclo[17.3.1.111,14.05,10]tetracosa-1(22),5,7,9,19(23),20-hexaene-2,2,4-trione”, the ring closure, isolated yield ([2]; 15-membered ring, K2CO3, NMP, 31.1 mM, 150.0 °C) is reported as 83%.

In the case of CC(C)(C)CCCOC1CCN(c2ccc3c(n2)N2C[C@@H](CCCNc4cccc(n4)S(=O)(=O)NC3=O)CC2(C)C)C1=O (single isomer, unassigned; diastereomer 2), the ring closure, isolated yield [2, 3] is reported as 19%.

Compound CC1(C)C[C@@H]2CCCNc3ccc(OCc4ccccc4)c(n3)S(=O)(=O)NC(=O)c3ccc(-n4ccc(OCCCC5(C(F)(F)F)CC5)n4)nc3N1C2 has a ring closure, isolated yield ([2]; from N-[[3-benzyloxy-6-[3-[(3S)-5,5-dimethylpyrrolidin-3-yl]propylamino]-2-pyridyl]sulfonyl]-2-chloro-6-[3-[3-[1-(trifluoromethyl)cyclopropyl]propoxy]pyrazol-1-yl]pyridine-3-carboxamide (ditrifluoroacetate salt), 15-membered ring, K2CO3, NMP, 42.6 mM, 150.0 °C) of 39%.

CC1(C)C[C@@H]2CCCNc3nc(ccc3OCc3ccccc3)S(=O)(=O)NC(=O)c3ccc(-n4ccc(OCCC5C6(CC6)C56CC6)n4)nc3N1C2 gave a ring closure, isolated yield ([2]; from CC1(C)C[C@H](CCCNc2nc(S(=O)(=O)NC(=O)c3ccc(-n4ccc(OCCC5C6(CC6)C56CC6)n4)nc3Cl)ccc2OCc2ccccc2)CN1, 15-membered ring, K2CO3/CsF, DMSO, 17.2 mM, 160.0 °C, 15.0 h) of 83%.

Work on CC1(C)C[C@@H]2CCCNc3cccc(n3)S(=O)(=O)NC(=O)c3ccc(N4CCC(OCCC5C6(CC6)C56CC6)C4=O)nc3N1C2 (stereo partly drawn) yielded a ring closure, isolated yield ([2]; from 2-chloro-N-[[6-[3-[(3S)-5,5-dimethylpyrrolidin-3-yl]propylamino]-2-pyridyl]sulfonyl]-6-[3-(2-dispiro[2.0.2.1]heptan-7-ylethoxy)-2-oxo-pyrrolidin-1-yl]pyridine-3-carboxamide (dihydrochloride salt), 15-membered ring, K2CO3, NMP, 24.0 mM, 150.0 °C) of 52%.
